A short description of experiment [1]: Effects on body weight and lean body mass, 4-week administration. It is filed as in vivo, cynomolgus monkey. As for the experimental part: The monkeys were divided into five groups by weight randomization (MiTOX system ver2.0, Mitsui E & S Systems Research Inc) on the last day of the habituation period. SARM‐2f was orally administered at daily doses of 1, 3, or 10 mg/kg for 4 weeks between 9:00 and 11:00 hours, using 0.5% w/v methylcellulose as the vehicle. TE was injected intramuscularly on Day 0 and Day 13; the dosing start was set at Day 0 at a dose of 2 mg/kg using sesame oil as the vehicle. The route of administration and dose of TE was selected according to the route and dose mentioned in the clinical indications. BW was measured every week before dosing (between 8:30 and 9:00 hours), and LBM was measured every 2 weeks after dosing and before feeding (between 11:30 and 14:30 hours) using an X‐ray bone density measuring device (Discovery, HOLOGIC USA). Blood collection for lipid profiles was conducted on the day after the completion of the four‐week multiple administration of SARM‐2f or TE. Plasma levels of total cholesterol (T‐chol), HDL‐c, low‐density lipoprotein cholesterol (LDL‐c), triglyceride (TG), alanine aminotransferase (ALT), and […] (AST) were measured by an automatic JCA‐BM8 analysis system (JEOL Ltd.). Plasma lipoprotein (a) (Lp (a)) levels were measured using a multiplate absorbance measuring system (Multiscan Ascent, Thermo Fisher Scientific KK).
In the reporter assays, EC50 was calculated using Graph Pad Prism version 6. The effects of SARM‐2f or TE on BW and LBM were analyzed by t test, with Bonferroni correction for repeated measurements.

Details of experiment [2]: method as in PMID 29344250. The settings on record: rats; cited from earlier work.

SMILES strings stand for the structures.

On to `CC[C@H]1[C@@H](O)CC(=O)N1c1ccc(C#N)c(C(F)(F)F)c1` [SARM‐2f, 4′‐[(2S,3S)‐2‐Ethyl‐3‐hydroxy‐5‐oxopyrrolidin‐1‐yl]‐2′‐(trifluoromethyl) benzonitrile], for which the “BW increase from pre‐dosing level” value in experiment [1] (1 mg/kg daily p.o., Day 13, male monkeys n = 3) amounted to 6.2%; in experiment [1] (1 mg/kg daily p.o., Day 27, male monkeys n = 3) it was 7.7%; in experiment [1] (3 mg/kg daily p.o., Day 13, male monkeys n = 3) it was 6.0%; in experiment [1] (3 mg/kg daily p.o., Day 27, male monkeys n = 3), 3.3%. In addition, the “LBM increase from pre‐dosing level” value came to 4.3% in experiment [1] (1 mg/kg daily p.o., Day 13, n = 3); 6.1% in experiment [1] (1 mg/kg daily p.o., Day 28, n = 3); 4.0% in experiment [1] (3 mg/kg daily p.o., Day 13, n = 3); 3.1% in experiment [1] (3 mg/kg daily p.o., Day 28, n = 3). Moreover, the “effective dose to increase BW by approximately 10%” value in experiment [1] (monkeys, daily p.o., 4 weeks) came to 10 mg/kg. In addition, the “dose sufficient to increase BW” value in experiment [2] was 0.3 mg/kg.

(Values after PMC7005530, “A selective androgen receptor modulator SARM‐2f activates androgen receptor, increases lean body mass, and suppresses blood lipid levels in cynomolgus monkeys” (Pharmacology Research & Perspectives, 2020).)
